Results from publication PMC4770715, “LIM kinase inhibitors disrupt mitotic microtubule organization and impair tumor cell proliferation” (Oncotarget, 2015).

Legend:
Test in all cases: biochemical
Parameters in all cases: KINOMEscan active-site competition binding, percent of control (100 = no competition)
Conditions in all cases: competition binding, percent control
CDK4-cyclinD3 = target: T1, CDK4-cyclinD3 (Homo sapiens, UniProt P11802)
T1 construct: cyclinD3

CDKL2 = CDKL2 (Homo sapiens, UniProt Q92772)
CSNK2A2 = CSNK2A2 (Homo sapiens, UniProt P19784)
EGFR(G719S) = EGFR(G719S) (Homo sapiens, UniProt P00533, G719S)
FLT1 = FLT1 (Homo sapiens, UniProt P17948)
INSRR = INSRR (Homo sapiens, UniProt P14616)
MAP3K4 = MAP3K4 (Homo sapiens, UniProt Q9Y6R4)
PFCDPK1(P.falciparum) = target: T2, PFCDPK1(P.falciparum) (Plasmodium falciparum, UniProt P62344)
T2 construct: gene CDPK1

PIP5K2B = target: T3, PIP5K2B (Homo sapiens, UniProt P78356)
T3 construct: gene PIP4K2B

PKNB(M.tuberculosis) = PKNB(M.tuberculosis) (Mycobacterium tuberculosis, UniProt P9WI81)
PRKCE = PRKCE (Homo sapiens, UniProt Q02156)
PRKD1 = PRKD1 (Homo sapiens, UniProt Q15139)
PRP4 = target: T4, PRP4 (Homo sapiens, UniProt Q13523)
T4 construct: gene PRPF4B

ROCK1 = ROCK1 (Homo sapiens, UniProt Q13464)
S6K1 = target: T5, S6K1 (Homo sapiens, UniProt P23443)
T5 construct: gene RPS6KB1

SNARK = target: T6, SNARK (Homo sapiens, UniProt Q9H093)
T6 construct: gene NUAK2

SRPK1 = SRPK1 (Homo sapiens, UniProt Q96SB4)
STK16 = STK16 (Homo sapiens, UniProt O75716)
SYK = SYK (Homo sapiens, UniProt P43405)
TAOK2 = TAOK2 (Homo sapiens, UniProt Q9UL54)
TXK = TXK (Homo sapiens, UniProt P42681)
YANK3 = target: T7, YANK3 (Homo sapiens, UniProt Q86UX6)
T7 construct: gene STK32C

p38-gamma = target: T8, p38-gamma (Homo sapiens, UniProt P53778)
T8 construct: gene MAPK12
T8 sequence (P53778 whole entry): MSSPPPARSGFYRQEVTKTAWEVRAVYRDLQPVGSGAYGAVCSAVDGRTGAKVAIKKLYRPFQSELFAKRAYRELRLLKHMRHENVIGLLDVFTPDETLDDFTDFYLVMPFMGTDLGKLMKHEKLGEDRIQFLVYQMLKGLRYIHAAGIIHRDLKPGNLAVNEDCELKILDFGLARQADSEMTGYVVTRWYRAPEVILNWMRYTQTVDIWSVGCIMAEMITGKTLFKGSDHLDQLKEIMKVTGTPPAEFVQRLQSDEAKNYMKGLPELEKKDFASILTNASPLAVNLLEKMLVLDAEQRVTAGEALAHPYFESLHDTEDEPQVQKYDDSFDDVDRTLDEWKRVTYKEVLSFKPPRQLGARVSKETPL

T5 sequence (P23443 whole entry): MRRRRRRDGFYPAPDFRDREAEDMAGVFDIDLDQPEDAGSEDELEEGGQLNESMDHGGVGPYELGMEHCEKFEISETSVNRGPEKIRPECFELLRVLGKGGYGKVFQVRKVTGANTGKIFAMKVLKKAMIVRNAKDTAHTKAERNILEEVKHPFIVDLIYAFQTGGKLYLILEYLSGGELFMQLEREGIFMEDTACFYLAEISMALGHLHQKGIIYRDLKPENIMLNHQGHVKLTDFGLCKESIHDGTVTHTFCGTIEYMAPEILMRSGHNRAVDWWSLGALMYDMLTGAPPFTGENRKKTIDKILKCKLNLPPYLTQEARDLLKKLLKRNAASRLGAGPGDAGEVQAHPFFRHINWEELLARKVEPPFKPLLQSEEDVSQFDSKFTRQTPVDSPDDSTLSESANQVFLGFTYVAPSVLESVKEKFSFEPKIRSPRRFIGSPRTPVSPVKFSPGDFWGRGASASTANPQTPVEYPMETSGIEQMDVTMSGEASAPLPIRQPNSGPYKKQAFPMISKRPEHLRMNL
Sequence of STK16 (O75716 whole entry): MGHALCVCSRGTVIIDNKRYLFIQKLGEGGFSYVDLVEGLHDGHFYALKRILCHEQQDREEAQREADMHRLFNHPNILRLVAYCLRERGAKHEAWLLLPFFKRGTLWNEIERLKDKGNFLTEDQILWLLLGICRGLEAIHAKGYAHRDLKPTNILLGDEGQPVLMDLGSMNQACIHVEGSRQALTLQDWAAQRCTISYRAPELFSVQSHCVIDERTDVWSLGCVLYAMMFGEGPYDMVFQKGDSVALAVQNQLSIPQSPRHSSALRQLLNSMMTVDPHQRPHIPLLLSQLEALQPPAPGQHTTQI
Sequence of EGFR(G719S) (P00533 whole entry G719S): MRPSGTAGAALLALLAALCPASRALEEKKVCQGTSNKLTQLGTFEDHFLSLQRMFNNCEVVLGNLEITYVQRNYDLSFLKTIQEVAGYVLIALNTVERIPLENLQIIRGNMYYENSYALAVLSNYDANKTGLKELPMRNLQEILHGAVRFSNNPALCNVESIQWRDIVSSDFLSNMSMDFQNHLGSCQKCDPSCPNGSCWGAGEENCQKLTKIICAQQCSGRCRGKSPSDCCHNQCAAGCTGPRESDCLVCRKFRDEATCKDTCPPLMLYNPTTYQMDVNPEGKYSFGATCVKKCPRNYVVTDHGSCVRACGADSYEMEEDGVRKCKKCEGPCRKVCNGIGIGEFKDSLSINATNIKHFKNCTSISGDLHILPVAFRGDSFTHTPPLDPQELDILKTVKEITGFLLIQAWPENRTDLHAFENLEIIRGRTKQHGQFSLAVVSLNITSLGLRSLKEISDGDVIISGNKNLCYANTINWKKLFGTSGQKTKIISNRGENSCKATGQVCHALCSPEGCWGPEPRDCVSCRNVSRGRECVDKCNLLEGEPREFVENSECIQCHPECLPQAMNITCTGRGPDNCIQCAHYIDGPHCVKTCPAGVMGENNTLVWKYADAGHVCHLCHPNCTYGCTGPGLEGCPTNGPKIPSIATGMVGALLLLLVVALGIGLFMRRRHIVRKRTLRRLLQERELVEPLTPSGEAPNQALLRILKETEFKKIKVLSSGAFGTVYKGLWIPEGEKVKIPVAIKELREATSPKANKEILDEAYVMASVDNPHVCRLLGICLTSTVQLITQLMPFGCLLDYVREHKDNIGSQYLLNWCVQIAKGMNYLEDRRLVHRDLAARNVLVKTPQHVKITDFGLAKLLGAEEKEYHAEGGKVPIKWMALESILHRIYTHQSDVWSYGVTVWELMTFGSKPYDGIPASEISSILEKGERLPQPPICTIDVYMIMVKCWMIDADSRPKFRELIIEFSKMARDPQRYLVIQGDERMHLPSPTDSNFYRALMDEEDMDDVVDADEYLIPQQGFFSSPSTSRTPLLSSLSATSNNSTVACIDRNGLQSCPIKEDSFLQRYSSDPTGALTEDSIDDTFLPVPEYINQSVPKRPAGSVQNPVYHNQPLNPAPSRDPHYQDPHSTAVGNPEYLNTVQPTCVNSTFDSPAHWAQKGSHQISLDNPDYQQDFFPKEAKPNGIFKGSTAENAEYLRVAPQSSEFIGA
Sequence of CDKL2 (Q92772 whole entry): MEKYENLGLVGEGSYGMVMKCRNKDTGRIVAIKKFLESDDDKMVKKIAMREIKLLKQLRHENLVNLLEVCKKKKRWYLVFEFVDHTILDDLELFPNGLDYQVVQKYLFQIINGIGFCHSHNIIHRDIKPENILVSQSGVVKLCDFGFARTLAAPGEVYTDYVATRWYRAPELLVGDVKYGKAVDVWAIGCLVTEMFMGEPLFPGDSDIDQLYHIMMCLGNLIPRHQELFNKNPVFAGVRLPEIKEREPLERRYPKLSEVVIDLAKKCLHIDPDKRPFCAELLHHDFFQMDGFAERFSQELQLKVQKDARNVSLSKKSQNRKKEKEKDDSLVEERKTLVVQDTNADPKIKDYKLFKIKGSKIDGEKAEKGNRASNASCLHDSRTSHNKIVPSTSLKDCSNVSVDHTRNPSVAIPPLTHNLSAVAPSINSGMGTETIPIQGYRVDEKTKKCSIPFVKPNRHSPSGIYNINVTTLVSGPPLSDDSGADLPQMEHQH
Sequence of SRPK1 (Q96SB4 whole entry): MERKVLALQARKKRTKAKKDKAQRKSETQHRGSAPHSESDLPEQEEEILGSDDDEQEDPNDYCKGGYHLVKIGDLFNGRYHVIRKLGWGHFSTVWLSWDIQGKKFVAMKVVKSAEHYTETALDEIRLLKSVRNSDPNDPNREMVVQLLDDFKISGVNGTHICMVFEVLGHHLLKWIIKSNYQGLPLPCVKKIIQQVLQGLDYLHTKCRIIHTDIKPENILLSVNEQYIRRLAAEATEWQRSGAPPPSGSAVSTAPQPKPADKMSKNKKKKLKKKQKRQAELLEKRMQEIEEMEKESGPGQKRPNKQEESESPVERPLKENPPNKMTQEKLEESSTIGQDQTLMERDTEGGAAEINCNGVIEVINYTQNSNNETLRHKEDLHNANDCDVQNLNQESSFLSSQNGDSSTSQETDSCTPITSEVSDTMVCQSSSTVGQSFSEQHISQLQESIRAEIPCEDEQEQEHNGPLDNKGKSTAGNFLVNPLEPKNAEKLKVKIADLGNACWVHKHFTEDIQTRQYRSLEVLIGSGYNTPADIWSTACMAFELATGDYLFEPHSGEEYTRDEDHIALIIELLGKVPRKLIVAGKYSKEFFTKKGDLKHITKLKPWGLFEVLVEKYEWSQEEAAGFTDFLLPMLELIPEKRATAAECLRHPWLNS
Sequence of FLT1 (P17948 whole entry): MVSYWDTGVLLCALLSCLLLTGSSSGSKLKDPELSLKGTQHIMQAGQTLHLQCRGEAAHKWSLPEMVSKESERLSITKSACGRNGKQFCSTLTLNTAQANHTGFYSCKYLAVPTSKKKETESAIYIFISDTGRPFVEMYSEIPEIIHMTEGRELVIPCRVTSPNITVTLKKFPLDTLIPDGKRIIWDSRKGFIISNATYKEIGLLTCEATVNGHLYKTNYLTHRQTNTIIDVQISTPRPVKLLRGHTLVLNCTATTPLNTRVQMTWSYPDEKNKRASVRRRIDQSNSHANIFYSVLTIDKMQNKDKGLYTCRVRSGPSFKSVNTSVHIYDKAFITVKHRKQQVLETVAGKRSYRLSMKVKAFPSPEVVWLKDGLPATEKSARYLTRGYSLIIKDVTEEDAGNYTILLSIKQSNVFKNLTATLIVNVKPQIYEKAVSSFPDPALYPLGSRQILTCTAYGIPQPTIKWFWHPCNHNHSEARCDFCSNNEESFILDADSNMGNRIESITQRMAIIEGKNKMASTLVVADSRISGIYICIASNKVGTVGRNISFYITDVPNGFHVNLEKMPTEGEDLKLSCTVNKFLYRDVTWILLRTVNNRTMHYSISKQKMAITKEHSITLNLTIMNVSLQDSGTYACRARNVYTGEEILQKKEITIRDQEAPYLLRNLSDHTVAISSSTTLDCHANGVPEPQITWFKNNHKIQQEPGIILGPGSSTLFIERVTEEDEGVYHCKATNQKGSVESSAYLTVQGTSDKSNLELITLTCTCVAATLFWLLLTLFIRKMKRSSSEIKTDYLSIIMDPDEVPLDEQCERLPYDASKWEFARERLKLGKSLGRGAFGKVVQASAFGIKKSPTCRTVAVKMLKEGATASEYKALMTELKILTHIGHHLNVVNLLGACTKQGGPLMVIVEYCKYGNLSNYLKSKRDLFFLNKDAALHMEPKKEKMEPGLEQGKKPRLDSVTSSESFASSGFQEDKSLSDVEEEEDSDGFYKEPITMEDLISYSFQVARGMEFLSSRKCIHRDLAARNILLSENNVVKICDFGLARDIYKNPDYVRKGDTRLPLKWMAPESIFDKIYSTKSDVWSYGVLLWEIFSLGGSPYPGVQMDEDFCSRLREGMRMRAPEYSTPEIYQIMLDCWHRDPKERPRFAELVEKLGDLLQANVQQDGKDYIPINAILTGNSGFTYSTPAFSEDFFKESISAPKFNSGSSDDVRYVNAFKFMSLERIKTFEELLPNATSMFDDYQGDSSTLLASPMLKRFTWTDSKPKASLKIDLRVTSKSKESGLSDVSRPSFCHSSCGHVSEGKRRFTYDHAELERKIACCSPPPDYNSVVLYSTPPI

SMILES | remaining binding at 10 µM (CDK4-cyclinD3) [%] | remaining binding at 10 µM (CDKL2) [%] | remaining binding at 10 µM (CSNK2A2) [%] | remaining binding at 10 µM (EGFR(G719S)) [%] | remaining binding at 10 µM (FLT1) [%] | remaining binding at 10 µM (INSRR) [%] | remaining binding at 10 µM (MAP3K4) [%] | remaining binding at 10 µM (PFCDPK1(P.falciparum)) [%] | remaining binding at 10 µM (PIP5K2B) [%] | remaining binding at 10 µM (PKNB(M.tuberculosis)) [%] | remaining binding at 10 µM (PRKCE) [%] | remaining binding at 10 µM (PRKD1) [%] | remaining binding at 10 µM (PRP4) [%] | remaining binding at 10 µM (ROCK1) [%] | remaining binding at 10 µM (S6K1) [%] | remaining binding at 10 µM (SNARK) [%] | remaining binding at 10 µM (SRPK1) [%] | remaining binding at 10 µM (STK16) [%] | remaining binding at 10 µM (SYK) [%] | remaining binding at 10 µM (TAOK2) [%] | further results
COc1ccc(-c2cnccc2-c2cnc(NC(=O)C(C)C)s2)c(C(F)(F)F)c1 [CRT0105446, N-{5-[3-(4-Methoxy-2-trifluoromethyl-phenyl)-pyridin-4-yl]-hiazol-2-yl}-isobutyramide] | 48 | 2.2 | 91 | 94 | 80 | 96 | 99 | 30 | 100 | 82 | 72 | 88 | 100 | 86 | 78 | 84 | 100 | 5 | 100 | 76 | remaining binding at 10 µM (TXK): 100%; remaining binding at 10 µM (YANK3): 100%; remaining binding at 10 µM (p38-gamma): 100%
Cc1ccc(-c2cnccc2-c2cnc(Nc3ccc(O)cc3)s2)c(Cl)c1 [CRT0105950, 4-{5-[3-(2-Chloro-4-methyl-phenyl)-pyridin-4-yl]-thiazol-2-ylamino}-phenol] | 13 | 0.6 | 58 | 75 | 21 | 0.15 | 100 | 17 | 44 | 19 | 55 | 18 | 100 | 79 | 41 | 31 | 74 | 8.7 | 100 | 21 | remaining binding at 10 µM (TXK): 38%; remaining binding at 10 µM (YANK3): 100%; remaining binding at 10 µM (p38-gamma): 100%
